A word on the IC50: it is the midpoint of a concentration-inhibition curve. High values mean lower potency, low ones higher potency. For orientation: EC50 means the concentration giving half of the maximal effect. A higher EC50 goes with a less potent agent.

From ChEMBL document CHEMBL1136666, “Indanyl piperazines as melatonergic MT2 selective agents” (Bioorg Med Chem Lett, 2003) come the findings set out here.

The structures appear in SMILES notation.

For assay [1], the target named is T1, Melatonin receptor type 1B (Homo sapiens, UniProt P49286).
T1 sequence (P49286 whole entry): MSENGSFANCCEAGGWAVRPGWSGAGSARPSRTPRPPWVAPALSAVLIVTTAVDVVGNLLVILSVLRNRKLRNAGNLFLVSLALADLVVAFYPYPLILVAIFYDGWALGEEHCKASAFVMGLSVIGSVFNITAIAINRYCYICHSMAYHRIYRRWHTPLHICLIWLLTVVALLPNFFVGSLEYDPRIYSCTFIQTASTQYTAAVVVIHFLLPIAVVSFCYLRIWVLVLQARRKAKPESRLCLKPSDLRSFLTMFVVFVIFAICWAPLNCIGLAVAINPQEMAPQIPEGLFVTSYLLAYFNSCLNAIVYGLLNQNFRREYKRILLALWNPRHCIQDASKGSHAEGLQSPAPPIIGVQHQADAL
The assay can be described thus: In vitro receptor binding at MT2 (Melatonin) receptor.

For assay [2], the target named is Melatonin receptor type 1A (Homo sapiens, UniProt P48039). The assay can be described thus: In vitro receptor binding at MT1 (Melatonin) receptor.
Melatonin receptor type 1A, sequence (P48039 whole entry): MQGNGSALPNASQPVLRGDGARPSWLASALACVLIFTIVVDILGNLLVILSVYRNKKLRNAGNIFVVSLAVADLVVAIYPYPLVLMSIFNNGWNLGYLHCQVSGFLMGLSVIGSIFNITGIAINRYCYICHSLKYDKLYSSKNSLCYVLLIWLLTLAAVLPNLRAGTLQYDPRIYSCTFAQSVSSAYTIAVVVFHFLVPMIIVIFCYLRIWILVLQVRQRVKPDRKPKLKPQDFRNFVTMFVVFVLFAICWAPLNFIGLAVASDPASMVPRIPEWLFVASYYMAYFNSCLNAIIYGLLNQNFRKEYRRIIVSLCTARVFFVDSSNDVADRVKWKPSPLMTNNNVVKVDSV
The target in assay [3] is T1, Melatonin receptor type 1B. In words: Effective concentration against human MT2 (Melatonin) receptor stably expressed in NIH3T3 cells in adenylyl cyclase assay. Type of assay: functional, cell-based.

`COc1ccc(F)c(CN2CCN(C(=O)C3CC3)CC2)c1`: the IC50 in assay [1] is 270 nM; in assay [2], greater than 1000 nM.
Take `COc1ccc2c(c1)C(N1CCN(C(=O)C(C)C)CC1)CC2` (stereo unspecified): the IC50 in assay [1] was determined as 1.5 nM; in assay [2], 160 nM.
For `CCC(=O)N1CCN(C2CCc3ccc(OC)cc32)CC1` (stereo unspecified), in that order: 32 nM and greater than 1000 nM.
For `COc1ccc(F)c(CN2CCN(C(=O)C(C)C)CC2)c1`, in that order: 224 nM and greater than 1000 nM.
For `CCCC(=O)N1CCN(C2CCc3ccc(OC)cc32)CC1` (stereo unspecified), the IC50 in assay [1] is 2.3 nM; in assay [2], greater than 1000 nM.
`COc1ccc2c(c1)[C@@H](N1CCN(C(=O)C(C)C)CC1)CC2`: the IC50 in assay [1] and in assay [2] was greater than 1000 nM each time.
In the case of `COc1ccc2c(c1)C(N1CCN(C(=O)C3CC3)CC1)CC2` (stereo unspecified), the IC50 in assay [1] was determined as 3 nM; in assay [2] it was 156 nM.
In the case of `COc1ccc2c(c1)[C@H](N1CCN(C(=O)C(C)C)CC1)CC2`, the figures for the IC50 in assay [1] and in assay [2] were 1.5 nM and 116 nM, respectively.
The matching figures for `COc1ccc(F)c(CN2CCN(C(C)=O)CC2)c1`: greater than 1000 nM and greater than 1000 nM.
The matching figures for `COc1ccc2cccc(N3CCN(C(=O)C4CC4)CC3)c2c1`: 90 nM and greater than 1000 nM.
The matching figures for `CCNC(=O)N1CCN(C2CCCc3ccc(OC)cc32)CC1` (stereo unspecified): 94 nM and greater than 1000 nM.
`CCNC(=O)N1CCN(c2cccc3ccc(OC)cc23)CC1`: the IC50 in assay [1] and in assay [2] was greater than 1000 nM throughout.
Turning to `COc1ccc2c(c1)[C@H](N1CCN(C(=O)C3CC3)CC1)CC2`, the half-maximal inhibitory concentration (IC50) stood at 1.6 nM in assay [1] and 44.5 nM in assay [2].
For `CCNC(=O)N1CCN([C@H]2CCc3ccc(OC)cc32)CC1`, in that order: greater than 1000 nM and greater than 1000 nM.
For `COc1ccc2c(c1)[C@@H](N1CCN(C(=O)C3CC3)CC1)CC2`, in that order: greater than 1000 nM and greater than 1000 nM.
Turning to `COc1ccc2c(c1)C(N1CCN(C(=O)C3CC3)CC1)CCC2` (stereo unspecified), the IC50 in assay [1] is 75 nM; in assay [2], greater than 1000 nM.
For `COc1ccc2c(c1)C(N1CCN(C(C)=O)CC1)CC2` (stereo unspecified), in that order: 44 nM and greater than 1000 nM.
Consider `CCCCC(=O)N1CCN(C2CCc3ccc(OC)cc32)CC1` (stereo unspecified), for which the IC50 in assay [1] was 103 nM; in assay [2] it was greater than 1000 nM.
For `CCNC(=O)N1CCN([C@@H]2CCc3ccc(OC)cc32)CC1`, the IC50 in assay [1] was determined as 1.7 nM; in assay [2] it was 200 nM. The compound further had an EC50 in assay [3] of 2.4 nM.
For `CCNC(=O)N1CCN(C2CCc3ccc(OC)cc32)CC1` (stereo unspecified), the IC50 is 3.1 nM in assay [1] and greater than 1000 nM in assay [2].
